{"source": "ChEMBL document CHEMBL5241054", "about": "“Effective anti-aromatase therapy to battle against estrogen-mediated breast cancer: Comparative SAR/QSAR assessment on steroidal aromatase inhibitors” (Eur J Med Chem, 2020)"}
{"target": "T1, Aromatase (Homo sapiens, UniProt P11511)", "T1 sequence (P11511 whole entry)": "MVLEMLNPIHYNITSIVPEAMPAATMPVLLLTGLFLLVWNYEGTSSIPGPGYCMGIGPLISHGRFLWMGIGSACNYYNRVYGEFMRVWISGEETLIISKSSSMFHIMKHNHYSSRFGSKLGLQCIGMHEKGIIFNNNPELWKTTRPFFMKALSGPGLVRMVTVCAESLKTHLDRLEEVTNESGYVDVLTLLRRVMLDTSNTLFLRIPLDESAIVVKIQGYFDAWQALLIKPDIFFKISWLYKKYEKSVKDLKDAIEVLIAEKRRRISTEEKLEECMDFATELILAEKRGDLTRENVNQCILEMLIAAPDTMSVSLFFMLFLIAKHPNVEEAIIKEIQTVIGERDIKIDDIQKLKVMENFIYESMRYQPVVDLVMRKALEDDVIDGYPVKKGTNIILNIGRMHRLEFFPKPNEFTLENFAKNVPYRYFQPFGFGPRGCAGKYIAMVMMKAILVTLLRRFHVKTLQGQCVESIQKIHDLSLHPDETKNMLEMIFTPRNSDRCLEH", "units": {"IC50": "µM"}}
{"smiles": "C[C@]12CCC=CC1=CC[C@@H]1[C@@H]2CC[C@]2(C)C(=O)CC[C@@H]12", "IC50": 0.34}
{"smiles": "COc1ccc(CS[C@@H]2CC3=CC(=O)CC[C@]3(C)[C@H]3CC[C@]4(C)C(=O)CC[C@H]4[C@H]23)cc1", "IC50": 0.031}
{"smiles": "C[C@]12CC[C@@H]3c4ccc(O)cc4CC[C@H]3[C@@H]1CCC2=O", "note": "[ESTRONE]", "IC50": 26}
{"smiles": "C[C@]12CCC(=O)c3c1c(nn3C/C=C/c1ccccc1)C[C@@H]1[C@@H]2CC[C@]2(C)C(=O)CC[C@@H]12", "IC50": 0.899}
{"smiles": "C[C@]12CC[C@H]3[C@@H](CCC4=CCCC[C@@]43C(F)F)[C@@H]1CCC2=O", "IC50": 1.2}
{"smiles": "C[C@]12CCC(=O)C=C1C1C([C@@H]3[C@@H]2CC[C@]2(C)C(=O)CC[C@@H]32)C1(F)F", "note": "(some centres undefined)", "IC50": 0.889}
{"smiles": "CO[C@H]1C[C@@H]2[C@H](CC[C@]3(C)C(=O)CC[C@@H]23)c2ccc(O)cc21", "IC50": 59}
{"smiles": "C[C@]12CC[C@@H]3c4cc(F)c(O)cc4CC[C@H]3[C@@H]1CC[C@@H]2O", "IC50": 76.9}
{"smiles": "C[C@]12CC[C@H]3[C@@H](CCC4=CC(=O)CC[C@@]43CO)[C@@H]1CCC2=O", "IC50": 13}
{"smiles": "CCC[C@@H]1C[C@@H]2[C@H](CC[C@]3(C)C(=O)CC[C@@H]23)[C@@]2(C)CCCC=C12", "IC50": 0.44}
{"smiles": "C[C@]12CCC(=O)C=C1C1OC1[C@@H]1[C@@H]2CC[C@]2(C)C(=O)CC[C@@H]12", "note": "(some centres undefined)", "IC50": 39}
{"smiles": "C[C@]12CCCC=C1CC[C@@H]1[C@@H]2CC[C@]2(C)C(=O)[C@H](Br)C[C@@H]12", "IC50": 4.1}
{"smiles": "CCCCCC[C@@H]1C[C@@H]2[C@H](CC[C@]3(C)C(=O)CC[C@@H]23)[C@@]2(C)CCC(=O)C=C12", "IC50": 0.43}
{"smiles": "CC1C[C@H]2[C@@H]3CC[C@H](O)[C@@]3(C)CC[C@@H]2[C@@]2(C)CCC(=O)C=C12", "note": "(some centres undefined)", "IC50": 0.018}
{"smiles": "C[C@]12CCCC=C1CC[C@@H]1[C@@H]2CC[C@]2(C)C(=O)[C@H](O)C[C@@H]12", "IC50": 4}
{"smiles": "CCCC[C@H]1C[C@@H]2[C@H](CC[C@]3(C)[C@@H](O)CC[C@@H]23)c2ccc(O)cc21", "IC50": 28}
{"smiles": "C[C@]12CCC(=O)c3nn(Cc4ccccc4)c(c31)C[C@@H]1[C@@H]2CC[C@]2(C)C(=O)CC[C@@H]12", "IC50": 0.245}
{"smiles": "CC(=O)OC[C@]12CCCC=C1CC[C@@H]1[C@@H]2CC[C@]2(C)C(OC(C)=O)CC[C@@H]12", "note": "(some centres undefined)", "IC50": 38}
{"smiles": "C[C@]12CCC(=O)C=C1CC[C@@H]1[C@@H]2CC[C@]2(C)C(=O)CC[C@@H]12", "note": "[ANDROSTENEDIONE]", "IC50": 1}
{"smiles": "C[C@]12CC[C@H]3[C@@H](C(=O)C=C4CCCC[C@@]43C=O)[C@@H]1CCC2=O", "IC50": 60}
{"smiles": "C[C@]12CC[C@@H]3c4ccc(O)c(F)c4CC[C@H]3[C@@H]1CC[C@@H]2O", "IC50": 87.9}
{"smiles": "CCC[C@H]1C[C@@H]2[C@H](CC[C@]3(C)C(=O)CC[C@@H]23)[C@@]2(C)CCC(=O)C=C12", "IC50": 0.39}
{"smiles": "C[C@]12CCC(=O)c3nn(C/C=C/c4ccccc4)c(c31)C[C@@H]1[C@@H]2CC[C@]2(C)C(=O)CC[C@@H]12", "IC50": 0.951}
{"smiles": "C[C@]12C=CC(=O)C=C1C(CCCCc1ccccc1)=C[C@@H]1[C@@H]2CC[C@]2(C)C(=O)CC[C@@H]12", "IC50": 0.15}
{"smiles": "C[C@]12C=C(Cc3ccccc3)C(=O)C=C1CC[C@@H]1[C@@H]2CC[C@]2(C)C(=O)CC[C@@H]12", "IC50": 86.5}
{"smiles": "CCCC[C@@H]1C[C@@H]2[C@H](CC[C@]3(C)C(=O)CC[C@@H]23)c2ccc(O)cc21", "IC50": 8.99}
{"smiles": "C[C@]12CCC(=O)C=C1[C@@H](CCCCCc1ccccc1)C[C@@H]1[C@@H]2CC[C@]2(C)C(=O)CC[C@@H]12", "IC50": 560}
{"smiles": "C[C@]12CCC(=O)c3c1c(nn3Cc1ccc([N+](=O)[O-])cc1)C[C@@H]1[C@@H]2CC[C@]2(C)C(=O)CC[C@@H]12", "IC50": 0.658}
{"smiles": "C[C@]12CCC(=O)c3nn(Cc4cccc([N+](=O)[O-])c4)c(c31)C[C@@H]1[C@@H]2CC[C@]2(C)C(=O)CC[C@@H]12", "IC50": 0.49}
{"smiles": "C[C@]12CCC(=O)C=C1[C@@H](c1ccccc1)C[C@@H]1[C@@H]2CC[C@]2(C)C(=O)CC[C@@H]12", "IC50": 1.1}
{"smiles": "CC[C@]12CCC(=O)C=C1CC[C@@H]1[C@@H]2CC[C@]2(C)C(=O)CC[C@@H]12", "IC50": 0.3}
{"smiles": "C[C@@H]1C[C@@H]2[C@H](CC[C@]3(C)C(O)CC[C@@H]23)[C@@]2(C)CCCC=C12", "note": "(some centres undefined)", "IC50": 3.7}
{"smiles": "CO[C@H]1C[C@@H]2[C@H](CC[C@]3(C)[C@@H](O)CC[C@@H]23)c2ccc(O)cc21", "IC50": 99.1}
{"smiles": "CCCCCCC1=C[C@@H]2[C@H](CC[C@]3(C)C(=O)CC[C@@H]23)[C@@]2(C)CCC(=O)C=C12", "IC50": 0.2}
{"smiles": "C[C@]12CC[C@H]3[C@@H](CCC4=CCCC[C@@]43CO)[C@@H]1C[C@@H](O)C2=O", "IC50": 8.99}
{"smiles": "CCC1=C[C@@H]2[C@H](CC[C@]3(C)C(=O)CC[C@@H]23)[C@@]2(C)C=CC(=O)C=C12", "IC50": 0.042}
{"smiles": "C#C[C@]12CCC(=O)C=C1CC[C@@H]1[C@@H]2CC[C@]2(C)C(=O)CC[C@@H]12", "IC50": 1}
{"smiles": "C[C@]12C=CC(=O)C(Sc3ccccc3)=C1CC[C@@H]1[C@@H]2CC[C@]2(C)C(=O)CC[C@@H]12", "IC50": 0.5}
{"smiles": "CC(=O)O[C@H]1C[C@@H]2[C@H](CC[C@]3(C)C(=O)CC[C@@H]23)[C@@]2(C)CCCC=C12", "IC50": 0.19}
{"smiles": "C[C@]12CC[C@H]3[C@@H](CC=C4CCCC[C@@]43C=O)[C@@H]1CCC2=O", "IC50": 8.99}
{"smiles": "CCCCCC[C@@H]1C[C@@]2(C)C(=CC1=O)CC[C@@H]1[C@@H]2CC[C@]2(C)C(=O)CC[C@@H]12", "IC50": 10.4}
{"smiles": "C[C@]12CC[C@H]3[C@@H](CCC4=CC(=O)CC[C@@]43C=O)[C@@H]1CCC2=O", "IC50": 1.2}
{"smiles": "C[C@]12CC[C@H]3[C@@H](C[C@H]4O[C@]45C(=O)CCC[C@]35C)C1CCC2=O", "note": "(some centres undefined)", "IC50": 12.5}
{"smiles": "C[C@]12CC[C@@H]3c4cc(NC(=O)c5ccccn5)c(O)cc4CC[C@H]3[C@@H]1CCC2=O", "IC50": 209}
{"smiles": "C[C@]12CCCC(=O)C1CC[C@@H]1[C@@H]2CC[C@]2(C)C(=O)CC[C@@H]12", "note": "(some centres undefined)", "IC50": 2.4}
{"smiles": "CCCCC1C[C@H]2[C@@H]3CC[C@H](O)[C@@]3(C)CC[C@@H]2[C@@]2(C)C=CC(=O)C=C12", "note": "(some centres undefined)", "IC50": 0.064}
{"smiles": "C[C@]12CCC(=O)C=C1[C@H](OC(=O)CBr)C[C@@H]1[C@@H]2CC[C@]2(C)C(=O)CC[C@@H]12", "IC50": 45}
{"smiles": "C[C@]12CCC(=O)c3c1c(nn3Cc1ccccc1)C[C@@H]1[C@@H]2CC[C@]2(C)C(=O)CC[C@@H]12", "IC50": 0.342}
{"smiles": "CO[C@H]1C[C@@H]2[C@H](CC[C@]3(C)C(=O)CC[C@@H]23)[C@@]2(C)CCCC=C12", "IC50": 0.16}
{"smiles": "CCCCC[C@@H]1C[C@@]2(C)C(=CC1=O)CC[C@@H]1[C@@H]2CC[C@]2(C)C(=O)CC[C@@H]12", "IC50": 1.28}
{"smiles": "C[C@]12C=CC(=O)C=C1[C@H](CCCCCc1ccccc1)C[C@@H]1[C@@H]2CC[C@]2(C)C(=O)CC[C@@H]12", "IC50": 0.1}
{"smiles": "Cc1cc2c(cc1O)CC[C@@H]1[C@@H]2CC[C@]2(C)C(=O)CC[C@@H]12", "IC50": 4.3}
{"smiles": "CCOC1=C[C@@]2(C)C(=CC1=O)CC[C@@H]1[C@@H]2CC[C@]2(C)C(=O)CC[C@@H]12", "IC50": 17.6}
{"smiles": "C[C@]12C=CC(=O)C=C1[C@H](CCCCc1ccccc1)C[C@@H]1[C@@H]2CC[C@]2(C)C(=O)CC[C@@H]12", "IC50": 0.47}
{"smiles": "C[C@]12CC[C@@H]3c4ccc(O)c(NC(=O)c5ccncc5)c4CC[C@H]3[C@@H]1CCC2=O", "IC50": 28.6}
{"smiles": "CCC[C@@H]1C[C@@H]2[C@H](CC[C@]3(C)C(=O)CC[C@@H]23)[C@@]2(C)C=CC(=O)C=C12", "IC50": 0.06}
{"smiles": "C[C@H]1C[C@@H]2[C@H](CC[C@]3(C)C(=O)CC[C@@H]23)[C@@]2(C)CCCC=C12", "IC50": 0.037}
{"smiles": "C[C@]12CC[C@@H]3c4cc(Cl)c(O)cc4CC[C@H]3[C@@H]1CCC2=O", "IC50": 2.3}
{"smiles": "C#C[C@@H]1C[C@@H]2[C@H](CC[C@]3(C)C(=O)CC[C@@H]23)[C@@]2(C)CCC(=O)C=C12", "IC50": 1.9}
{"smiles": "C[C@]12CC[C@H]3[C@@H](CCC4=CC(=O)CC[C@@]43CO)[C@@H]1C[C@@H](O)[C@@H]2O", "IC50": 2400}
{"smiles": "CCCCCC1=C[C@@H]2[C@H](CC[C@]3(C)C(=O)CC[C@@H]23)[C@@]2(C)C=CC(=O)C=C12", "IC50": 0.14}
{"smiles": "C=C[C@@H]1C[C@@H]2[C@H](CC[C@]3(C)C(=O)CC[C@@H]23)[C@@]2(C)CCC(=O)C=C12", "IC50": 0.32}
{"smiles": "C[C@]12CC[C@H]3[C@@H](CC=C4C(=O)CCC[C@@]43C=O)[C@@H]1CCC2=O", "IC50": 27}
{"smiles": "C[C@]12CCCCC1=CC[C@@H]1[C@@H]2CC[C@]2(C)C(=O)[C@H](Br)C[C@@H]12", "IC50": 55}
{"smiles": "C[C@]12C=CC(=O)C=C1C[C@@H](CCCc1ccc(N)cc1)[C@@H]1[C@@H]2CC[C@]2(C)C(=O)CC[C@@H]12", "IC50": 0.158}
{"smiles": "C[C@]12CCC(=O)C=C1[C@H](CCCc1ccccc1)C[C@@H]1[C@@H]2CC[C@]2(C)C(=O)CC[C@@H]12", "IC50": 290}
{"smiles": "C[C@]12C=CC(=O)C=C1C(CCc1ccccc1)=C[C@@H]1[C@@H]2CC[C@]2(C)C(=O)CC[C@@H]12", "IC50": 0.0729}
{"smiles": "C[C@]12CCC(=O)C=C1C[C@@H](Cc1ccccc1)[C@@H]1[C@@H]2CC[C@]2(C)C(=O)CC[C@@H]12", "IC50": 0.328}
{"smiles": "CCCCCC1=C[C@@H]2[C@H](CC[C@]3(C)C(=O)CC[C@@H]23)[C@@]2(C)CCC(=O)C=C12", "IC50": 0.22}
